Data reported in US8722923B2, “Conjugates for treating neurodegenerative diseases and disorders” (Ramot at Tel-Aviv University Ltd., priority 2008, dated 2014).
“Also recorded” adds a separate entry of the source. Structures can show the parent of a compound that is named as a salt. Values belong to the compound of their own block, whether it stands above or below them.

What was measured:
[1] = system: MPTP sub-acute model mice; test: Experiment 2: tyrosine hydroxylase immunostaining of striatum and substantia nigra, MPTP sub-acute model; assay type: in vivo, C57/BL/6J mice; settings: GABA 18.4 mg/kg, L-DOPA 30 mg/kg + GABA 18.4 mg/kg, AN-490 81 mg/kg per os, days 29-30
Experimental: Shown are microphotograph of the striatum and substantia-nigra of mice receiving saline (FIG. 8A, Naive), MPTP+saline (FIG. 8B, MPTP) MPTP+GABA.HCl 18.4 mg/kg (FIG. 8C, MPTP+GABA), MPTP+L-DOPA 30 mg/kg (FIG. 8D, MPTP+DOPA), MPTP+L-DOPA 30 mg/kg+GABA 18.4 mg/kg (FIG. 8E, MPTP+Dopa+GABA) and MPTP+AN-490 81 mg/kg (FIG. 8F, MPTP+AN490). Paraffin-embedded horizontal sections of the stratium and substantia nigra were stained with hematoxylan and Tyrosine Hyroxylase antibodies. The magnification is ×100 and in the insert ×200.
Animals under deep anesthesia were perfused through the aorta with phosphate-buffered saline (PBS), followed by a cold fixative consisting of 4% paraformaldehyde, 0.35% glutaraldehyde and 0.2% picric acid in phosphate buffer. After perfusion, the brain were removed and fixed in 4% paraformaldehyde for 24 hours, washed with PBS, dehydrated in increasing alcohol concentrations and embedded in paraffin. Paraffin-embedded tissues were processed as described [Rephaeli et al. Int J Cancer. 2005 Aug. 20; 116:226-35]. The avidin-biotin nonspecific binding was prevented by a blocking kit according to the manufacturer's protocol (Vector, USA). The sections were further incubated at 4° C. overnight with the primary antibody mouse monoclonal tyrosine hydroxylase (Visionbiosystem, Newcastle, UK, diluted 1:50). The secondary antibody was biotin conjugated goat anti-mouse IgG (Santa Cruz). Slides were then stained with ABC peroxidase system, developed with diaminobenzidine (DAB), chromogene substrate (Vector Laboratories, Inc. The slides were examined using an Olympus BX52 light microscope and images were taken with Olympus DP50 digital camera system. Images were analyzed by the ImagePro Plus 5.1 software. At least 12 different fields in each experimental group were analyzed. The Mean density±SEM was calculated for the striatum and the mean cell number±SEM was calculated for the SN.

MPTP acute model mice [2] = test: Experiment 3: tyrosine hydroxylase immunohistochemistry of striatum and substantia nigra, MPTP acute model; assay type: in vivo, C57/BL/6J mice; settings: overall conclusion
Experimental: FIG. 13 presents a bar graph showing the effect of BL-1023* administration on the neuronal density in the stratium, as assessed from Tyrosine Hydroxylase staining. Mice were administered the following treatments: saline (control), MPTP+saline (MPTP), MPTP+L-DOPA 30 mg/kg (MPTP+L-DOPA), MPTP+L-DOPA 30 mg/kg+GABA 18.4 mg/kg (MPTP+L-DOPA+GABA), MPTP+BL1023* 48.4 mg/kg (denoted MPTP+1023 30) and MPTP+BL-1023* 24.2 mg/kg (denoted MPTP+BL1023 15). The MPTP neurotoxin was administered on day 0, with 4 IP injections (each injection contained 20 mg/kg, 5 ml/kg) in saline. The various treatments or saline were administered on day 7, 9, 11 and 13 (total of 4 treatments). Three mice, from each treatment group, and four mice from the control group, were sacrificed on day 15 and subjected to immunohystochemistry for tyrosine hydroxylase of the stratium according to the protocol described in the Examples section hereinbelow. The intensity of Tyrosine Hyroxylase (TH) staining, in the striatum of the treated mice is presented as the average of Intensity Optical Density (IOD) and SE obtained for the total stained area.
FIG. 15 presents a bar graph showing the effect of BL-1023* administration on the neuronal density in the substantia nigra, as assessed from Tyrosine Hydroxylase staining. […]

[3] = system: MPTP sub-acute model mice; test: Experiment 2: observed vitality signs (level of motion, fur appearance), MPTP sub-acute model; assay type: in vivo, C57/BL/6J mice; as to Fur, observer 1: key: Split fur +; Shiny fur +++; as to Fur, observer 2: key: Split fur +; Shiny fur +++; as to Fur, observer 3: key: Split fur +; Shiny fur +++; as to Fur, observer 4: key: Split fur +; Shiny fur +++; as to Vitality, observer 1: key: slow motions +; normal motion +++; as to Vitality, observer 2: key: slow motions +; normal motion +++; as to Vitality, observer 3: key: slow motions +; normal motion +++; as to Vitality, observer 4: key: slow motions +; normal motion +++
Description: FIG. […] 6 hereinabove. Six independent observers estimated the level of mice vitality by the level of motion of the mice (light purple, marked vitality) and fur appearance (dark purple). The results are an average of the observers' reports.

[4] = Hygroscopicity of acid addition salts; assay type: physicochemical; settings: acid addition salts as isolated
Description: The hydrochloride salts of Compounds 6, 8a, 11, 13, 14, 16, 18 and 21 were identified as hygroscopic. […] The basis for this assumption was that the addition salt of an aromatic acid would be less hygroscopic than that of the corresponding hydrochloric acid addition salt. Thus, the butyl ester, Compound 20 was Boc-deprotected with 3 equivalents of benzenesulfonic acid in […].

MPTP acute model mice [5] = test: Experiment 1: open field test, MPTP acute model (AN-490); assay type: in vivo, C57/BL/6J mice; settings: for motility / motor activity in open field: MPTP treated mice, L-DOPA 25 mg/kg or AN-490 67.5 mg/kg by oral gavage, days 3, 6, 8, 16
Experimental: The MPTP neurotoxin was administered on day 0, with 4 IP injections (each injection contained 20 mg/kg, 5 ml/kg) in saline. The various treatments or saline were administered on days 0, 1, 2, 3, 6, 7, 13 and 16. Each group of mice (n=6) was subjected, on days 3, 6, 8 and 16, to the open field test, and the following parameters were scored: the distance moved (FIGS. 2A and 2B), velocity (FIGS. 2C and 2D), time spent immobile (FIGS. 2E and 2F) and time spent in a high level of mobility (FIGS. 2G and 2H; strong mobility) during a period of 20 minutes. FIGS. 2A, 2C, 2E and 2G present the data obtained for the control mice, mice treated with L-DOPA and mice treated with AN-490. FIGS. 2B, 2D, 2F and 2H present the data obtained for control mice or mice treated with MPTP, MPTP with L-DOPA and MPTP with AN-490.
Acute model: On day 1, C57/BL mice received 4× […] injections of 20 mg/kg MPTP-HCl (Sigma), dissolved in saline solution, at 2 hours intervals.
The open field test measures behavioral responses, locomotor activity, hyperactivity, and exploratory behaviors. Open field test is also used as a measure of anxiety. Mice tend to avoid brightly illuminated, novel, open spaces, so the open field environment acts as an anxiogenic stimulus and allows for measurement of anxiety-induced locomotor activity and exploratory behaviors. The apparatus for the open field test is a square (0.5×0.5 meter) made of white melamine. All activities were recorded by a video camera mounted above the open field and scored in real-time by a motion-recognition software package (Noldus, Holland) that detects and analyzes the movements of the animals. The video image of the open field arena was partitioned into equal-size squares zone. Total distance, average speed, rearing/elongation behavior, and time spent in various parts of the field (e.g. the border areas vs. mid-area) were measured. Testing was carried out in a temperature, noise and light controlled room.

[6] = compared with other esters such as the ethyl or octyl esters; cited from earlier work
[7] = MPTP sub-acute model, per os treatment
[8] = listed as Compound 21, tri-hydrochloride
[9] = MPTP+AN-490 67.5 mg/kg, compared to the other tested groups

Fur, observer 1 [3, 7]: +++
Fur, observer 3 [3, 7]: +++
Fur, observer 4 [3, 7]: +++
Vitality, observer 1 [3, 7]: +++
Vitality, observer 2 [3, 7]: +++
Vitality, observer 3 [3, 7]: +++
Vitality, observer 4 [3, 7]: +++
Compound: NCCCC(=O)O [GABA, 4-amino-butyric acid]
TH staining in the substantia nigra and striatum (IHC) [1]: protection or restoration of the normal morphology
protection of TH positive cells (MPTP acute model mice [2]): protect the TH positive cells

melting point: 77 °C
Compound: CCCCOC(=O)C(Cc1ccc(O)c(O)c1)NC(=O)CCCN (stereo not shown) (as salt: hydrochloride) [BL-1023*, Butyl-2-(4-Aminobutanamide)-3-(3,4-dihydroxyphenyl)propanoate hydrochloride]

melting point: 175 to 176 °C
Compound: CCCCOC(=O)[C@@H](N)Cc1ccc(OC(=O)CCCN)c(OC(=O)CCCN)c1 (as salt: hydrochloride) [AN-490, Butyl-2-amino-3-(3,4-phenyl-di[4-aminobutanoate])propanoate tri-hydrochloride]

hygroscopicity [4]: hygroscopic
Fur, observer 1 [3, 7]: +
Fur, observer 2 [3, 7]: +
Vitality, observer 1 [3, 7]: +++
Vitality, observer 2 [3, 7]: +++
Vitality, observer 3 [3, 7]: +++
Vitality, observer 4 [3, 7]: +++
vitality signs (fur appearance) ([3]; MPTP+AN-490 81 mg/kg per os): reduced vitality signs
Compound: CCCCOC(=O)[C@@H](N)Cc1ccc(OC(=O)CCCN)c(OC(=O)CCCN)c1 [AN-490, Butyl-2-amino-3-(3,4-phenyl-di[4-aminobutanoate])propanoate tri-hydrochloride]
TH staining in the substantia nigra and striatum (IHC) [1, 8]: enhanced neuronal density
TH staining in the substantia nigra and striatum (IHC) ([1]; tri-hydrochloride): protection or restoration of the normal morphology; also recorded: TH protective activity
motility / motor activity in open field (MPTP acute model mice [5]; [8]): significant increase in motility
motility / motor activity in open field (MPTP acute model mice [5]; tri-hydrochloride): continuous increase in motor activity
strong mobility in open field (MPTP acute model mice [5]; [9]): highly mobile
time spent immobile in open field (MPTP acute model mice [5]; [9]): immobile for a short time
velocity in open field (MPTP acute model mice [5]; [9]): highest velocity

hygroscopicity [4]: hygroscopic
melting point: 87 °C
Compound: COC(=O)C(Cc1ccc(OC(=O)CCCN)c(OC(=O)CCCN)c1)NC(=O)CCCN.Cl (stereo not shown) [Compound 13]

hygroscopicity [4]: hygroscopic
Compound: CCCCOC(=O)C(N)Cc1ccc(O)c(O)c1.Cl (stereo not shown) [Compound 14, Butyl-2-amino-3-(3,4-dihydroxyphenyl)propanoate hydrochloride]

hygroscopicity [4]: hygroscopic
Compound: CCCCOC(=O)C(Cc1ccc(OC(=O)CCCN)c(OC(=O)CCCN)c1)NC(=O)CCCN (stereo not shown) [Compound 18]

melting point: 74 to 75 °C
Compound: CCCCOC(=O)C(Cc1ccc(OC(=O)CCCN)c(OC(=O)CCCN)c1)NC(=O)CCCN (stereo not shown) (as salt: hydrochloride) [Compound 18]

Compound: CCCCOC(=O)[C@@H](N)Cc1ccc(O)c(O)c1 [L-DOPA butyl ester]
skin permeability [6]: better skin permeability

hygroscopicity [4]: hygroscopic
Compound: COC(=O)C(Cc1ccc(O)c(O)c1)NC(=O)CCCN.Cl (stereo not shown) [Compound 8a, methyl-2-(4-aminobutanamide)-3-(3,4-dihydroxyphenyl)propanoate hydrochloride]

Compound: COC(=O)[C@@H](N)Cc1ccc(O)c(O)c1.Cl [Compound 6, L-DOPA methyl ester hydrochloride]
hygroscopicity [4]: hygroscopic

Compound: Butyl-2-amino-3-(3,4-phenyl-di[4-aminobutanoate])propanoate tri-benzenesulfonate salt [Compound 22]
hygroscopicity [4]: much less hygroscopic

hygroscopicity [4]: hygroscopic
melting point: 185 °C
Compound: COC(=O)C(N)Cc1ccc(OC(=O)CCCN)c(OC(=O)CCCN)c1.Cl (stereo not shown) [Compound 11, methyl-2-amino-3-(3,4-phenyl-di-[4-aminobutanoate])propanoate-trihydrochloride]
